Tests used:
TmCHMO [1] = target: T1, TmCHMO (Thermocrispum municipale, UniProt A0A1L1QK40); assay: ThermoFAD, release of FAD on unfolding; assay type: binding; conditions: 10 uM enzyme, +0.5 °C/min
T1 construct: recombinant from E. coli, gene from pBAD-His-Tag-SUMO-TmCHMO
T1 sequence (A0A1L1QK40 1-541): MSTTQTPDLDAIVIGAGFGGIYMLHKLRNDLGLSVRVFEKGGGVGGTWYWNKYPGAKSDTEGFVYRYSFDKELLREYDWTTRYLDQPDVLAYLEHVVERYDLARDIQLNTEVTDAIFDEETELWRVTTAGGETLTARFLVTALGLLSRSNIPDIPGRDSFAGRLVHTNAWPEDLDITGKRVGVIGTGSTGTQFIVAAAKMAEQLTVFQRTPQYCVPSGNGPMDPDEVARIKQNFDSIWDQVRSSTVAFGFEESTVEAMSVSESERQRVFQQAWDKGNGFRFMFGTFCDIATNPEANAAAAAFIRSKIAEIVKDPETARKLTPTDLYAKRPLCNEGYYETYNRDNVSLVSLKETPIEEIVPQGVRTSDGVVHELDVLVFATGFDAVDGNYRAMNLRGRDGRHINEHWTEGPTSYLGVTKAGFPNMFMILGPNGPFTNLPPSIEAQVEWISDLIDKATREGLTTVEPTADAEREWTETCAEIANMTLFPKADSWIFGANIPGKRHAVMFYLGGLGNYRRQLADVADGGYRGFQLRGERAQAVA

TmCHMO [2] = target: T1, TmCHMO; assay: inhibition of thioanisole oxidation, NADPH depletion at […] nm; assay type: biochemical; conditions: read-out: K I (estimated)
TmCHMO [3] = target: T1, TmCHMO; assay: as above; assay type: biochemical; conditions: read-out: 50% reduction of activity

Question: Cc1cc2nc3c(=O)[nH]c(=O)nc-3n(C[C@H](O)[C@H](O)[C@H](O)COP(=O)(O)OP(=O)(O)OC[C@H]3O[C@@H](n4cnc5c(N)ncnc54)[C@H](O)[C@@H]3O)c2cc1C [FAD] was tested. Which “ThermoFAD, release of FAD on unfolding” value (TmCHMO [1]) did it give?
Answer: The value was “the release of the FAD from TmCHMO upon unfolding could be detected”.

Question: Which Ki (TmCHMO [2]) does the source give for OC1CCCCC1 [cyclohexanol] here?
Answer: Its Ki is less than 2 mM.

Question: Which IC50 (TmCHMO [3]) does the source give for O=C1CCCCCO1 [ε-caprolactone] here?
Answer: The IC50 was 66 mM.

Reference: publication PMC5624969, “Coupled reactions by coupled enzymes: alcohol to lactone cascade with alcohol dehydrogenase–cyclohexanone monooxygenase fusions” (Applied Microbiology and Biotechnology, 2017)
